# How the values were obtained:
# Rattus norvegicus [1] = experiment: Amount of urine output was measured in rat at a dose of 10 mg/kg/po; type: ADME, organism-based; conditions: in vivo
# [2] = biological target: Vasopressin V1a receptor (Rattus norvegicus) (UniProt P30560); experiment: In vitro inhibition of (Phe-3,4,5 [3H]-) AVP binding towards isolated rat hepatic V1a receptor at a dose of 10 uM
# Vasopressin V2 receptor [3] = biological target: T1, Vasopressin V2 receptor (Rattus norvegicus, UniProt Q00788); experiment: Displacement of P[3H]-AVP from isolated rat kidney medullary V2 receptor
# Vasopressin V1a receptor [4] = biological target: T2, Vasopressin V1a receptor (Rattus norvegicus, UniProt P30560); experiment: Displacement of (Phe-3,4,5 [3H]-) AVP from isolated rat hepatic V1a receptor
# Rattus norvegicus [5] = experiment: Amount of urine output was measured in rat at a dose of 1 mg/kg/po; type: ADME, organism-based; conditions: in vivo
# [6] = biological target: Vasopressin V2 receptor (Rattus norvegicus) (UniProt Q00788); experiment: In vitro inhibition of (P[3H]-AVP binding towards isolated rat kidney medullary V2 receptor at a dose of 10 uM
# Vasopressin V1a receptor [7] = biological target: T2, Vasopressin V1a receptor; experiment: In vitro inhibition of (Phe-3,4,5 [3H]-) AVP binding towards isolated rat hepatic Vasopressin V1a receptor
# Vasopressin V2 receptor [8] = biological target: T1, Vasopressin V2 receptor; experiment: In vitro inhibition of (P[3H]-AVP binding towards isolated rat kidney medullary Vasopre ssin V2 receptor
# Vasopressin V1a receptor (Rattus norvegicus), sequence (P30560 whole entry, looked up): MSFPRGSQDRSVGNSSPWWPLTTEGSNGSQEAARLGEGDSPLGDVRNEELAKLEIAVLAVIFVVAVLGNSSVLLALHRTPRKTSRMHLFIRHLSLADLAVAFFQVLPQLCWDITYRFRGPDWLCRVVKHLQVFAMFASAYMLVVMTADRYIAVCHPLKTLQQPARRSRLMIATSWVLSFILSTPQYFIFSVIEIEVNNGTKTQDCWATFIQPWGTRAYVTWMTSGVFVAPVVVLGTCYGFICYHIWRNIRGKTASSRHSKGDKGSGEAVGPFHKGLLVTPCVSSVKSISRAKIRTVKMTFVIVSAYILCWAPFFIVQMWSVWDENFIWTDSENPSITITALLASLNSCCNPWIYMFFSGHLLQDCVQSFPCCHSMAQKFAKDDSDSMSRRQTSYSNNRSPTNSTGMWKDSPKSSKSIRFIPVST
# T2 sequence (P30560 whole entry): as the sequence (P30560 whole entry, looked up) above
# T1 sequence (Q00788 whole entry): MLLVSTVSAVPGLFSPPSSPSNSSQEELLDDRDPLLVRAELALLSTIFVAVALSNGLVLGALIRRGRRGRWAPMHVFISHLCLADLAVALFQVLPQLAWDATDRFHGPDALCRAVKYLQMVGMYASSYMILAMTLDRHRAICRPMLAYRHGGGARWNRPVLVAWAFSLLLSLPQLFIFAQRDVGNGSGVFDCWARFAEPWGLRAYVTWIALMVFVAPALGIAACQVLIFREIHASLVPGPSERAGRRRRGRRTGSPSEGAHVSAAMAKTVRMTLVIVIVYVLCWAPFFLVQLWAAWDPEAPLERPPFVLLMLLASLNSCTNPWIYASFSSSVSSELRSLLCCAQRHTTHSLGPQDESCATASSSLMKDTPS
# Vasopressin V2 receptor (Rattus norvegicus), sequence (Q00788 whole entry): as above
Compound,Urine volume (Rattus norvegicus [1]) [ml 4hr-1],IC50 (Vasopressin V2 receptor [3]) [nM],IC50 (Vasopressin V1a receptor [4]) [nM],also measured
O=C(Nc1ccc(C(=O)N2Cc3cccn3Cc3ccccc32)cn1)c1ccc(F)cc1Cl,30.5,–,–,–
Nc1ccccc1C(=O)Nc1ccc(C(=O)N2Cc3cccn3Cc3ccccc32)cn1,–,210,–,inhibition [2]: 29%
Cc1ccc(F)cc1C(=O)N(CCCN(C)C)c1ccc(C(=O)N2Cc3cccn3Cc3ccccc32)cn1,–,290,–,inhibition [2]: 68%
Cc1ccc(F)cc1C(=O)Nc1ccc(C(=O)N2Cc3cccn3Cc3ccccc32)c(Cl)c1 [LIXIVAPTAN],35,0.5,82,–
O=C(Nc1ccc(C(=O)N2Cc3cccn3Cc3ccccc32)cn1)c1cc(F)ccc1F,11.8,240,310,–
O=C(Nc1ccc(C(=O)N2Cc3cccn3Cc3ccccc32)cn1)c1ccccc1Cl,4,–,–,–
O=C(Nc1ccc(C(=O)N2Cc3cccn3Cc3ccccc32)cn1)c1ccccc1-c1ccccc1,16.5,8.3,30,–
Cc1ccc(F)cc1C(=O)Nc1ccc(C(=O)N2Cc3cccn3Cc3ccccc32)cn1,–,–,–,Urine volume (Rattus norvegicus [5]): 20 ml 4hr-1
O=C(Nc1ccc(C(=O)N2Cc3cccn3Cc3ccccc32)cn1)c1cc(Cl)ccc1Cl,19.3,4.3,100,–
Cc1c(F)cccc1C(=O)Nc1ccc(C(=O)N2Cc3cccn3Cc3ccccc32)cn1,34,–,9,–
Cc1ccc(F)cc1C(=O)Nc1ccc(C(=O)N2Cc3ccc(CN(C)C)n3Cc3ccccc32)cn1,12.5,33,99,–
O=C(Nc1ccc(C(=O)N2Cc3cccn3Cc3ccccc32)cn1)c1cc(Br)ccc1Cl,16.5,7.3,82,–
O=C(Nc1ccc(C(=O)N2Cc3cccn3Cc3ccccc32)cn1)c1ccc(F)cc1F,–,–,–,inhibition [6]: 58%; inhibition [2]: 37%
O=C(Nc1ccc(C(=O)N2Cc3cccn3Cc3ccccc32)cn1)c1ccccc1[N+](=O)[O-],–,160,920,–
Cc1ccccc1C(=O)Nc1ccc(C(=O)N2Cc3cccn3Cc3ccccc32)cn1,5.3,–,–,IC50 (Vasopressin V1a receptor [7]): 21 nM; IC50 (Vasopressin V2 receptor [8]): 3 nM
O=C(Nc1ccc(C(=O)N2Cc3cccn3Cc3ccccc32)cn1)c1c(F)cccc1Cl,15.8,4,40,–
O=C(Nc1ccc(C(=O)N2Cc3cccn3Cc3ccccc32)cn1)c1cc(-c2ccccn2)ccc1Cl,–,480,260,–
COc1cc(C(=O)Nc2ccc(C(=O)N3Cc4cccn4Cc4ccccc43)cn2)cc(OC)c1OC,–,–,–,inhibition [6]: 41%; inhibition [2]: 51%
